In general, MIC refers to the lowest concentration found to suppress growth.

Values after ≈ are worked out from the molar mass of the structure shown.

For 17 compounds, MIC results are on record in patent US10030047B2 (Hoffmann-La Roche Inc., priority 2015, dated 2018).

The first assay relates to A. baumannii strain ATCC19606. Put plainly: Minimum inhibitory concentration (MIC) determination, microbroth dilution (CLSI). Format: cell-based. Conditions: Acinetobacter baumannii, ATCC19606, 20 h, read-out: ATCC19606 MIC. A digest of the protocol: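 After 20 h at 35±2 °C, MIC taken visually and by OD 600 nm as the lowest concentration giving ≥80% growth inhibition. Bacteria (~5×10^5 CFU/ml) were tested per CLSI microbroth dilution against twofold serial compound dilutions in cation-adjusted Mueller Hinton broth.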
Regarding `CN1C(=O)[C@H](CCCN)NC(=O)[C@H](CCCN)NCc2ccccc2Sc2ccccc2CNC(=O)[C@@H]1Cc1c[nH]c2ccccc12` [Example 2, (12S,15S,18S)— 15,18-Bis-(3-amino-propyl)-12-(1H-indol-3-ylmethyl)-13-methyl-2-thia-10,13,16,19-tetraaza-tricyclo[19.4.0.0*3,8*]pentacosa-1(21),3,5,7,22,24-hexaene-11,14,17-trione], the MIC came out at 4 µg/mL (≈ 6.1 µM).

As for `CN1C(=O)[C@H](CCCCN)NC(=O)[C@H](CCCN)NCc2cccnc2Sc2c(Cl)ccc(Cl)c2CNC(=O)[C@@H]1Cc1c[nH]c2ccccc12` [Example 38, (11S,14S,17S)-14-(4-Amino-butyl)-11-(3-amino-propyl)-22,25-dichloro-17-(1H-indol-3-ylmethyl)-16-methyl-2-thia-4,10,13,16,19-pentaaza-tricyclo[19.4.0.0*3,8*]pentacosa-1(25),3(8),4,6,21,23-hexaene-12,15,18-trione], the MIC was found to be 0.5 µg/mL (≈ 0.676 µM).

Still in this assay, the particulars now being: Acinetobacter baumannii; A. baumannii ATCC19606; CAMHB; read after 20 hours; >=80% growth inhibition; read-out: ATCC19606 MIC.
For the compound `CN1C(=O)[C@H](CCCCN)NC(=O)[C@H](CCCN)NCc2ccccc2Sc2ccc(Cl)cc2CNC(=O)[C@@H]1Cc1cn(C)c2cc(Cl)ccc12` [Example 19, (12S,15S,18S)-15-(4-Amino-butyl)-18-(3-amino-propyl)-6-chloro-12-(6-chloro-1-methyl-1H-indol-3-ylmethyl)-13-methyl-2-thia-10,13,16,19-tetraaza-tricyclo[19.4.0.0*3,8*]pentacosa-1(21),3,5,7,22,24-hexaene-11,14,17-trione], the MIC was found to be 16 µg/mL (≈ 21.3 µM).

With `CN1C(=O)[C@H](CCCCN)NC(=O)[C@H](CCCN)NCc2ccccc2Sc2ccccc2CNC(=O)[C@@H]1Cc1c[nH]c2cc(Cl)ccc12` [Example 15, (12S,15S,18S)-15-(4-Amino-butyl)-18-(3-amino-propyl)-12-(6-chloro-1H-indol-3-ylmethyl)-13-methyl-2-thia-10,13,16,19-tetraaza-tricyclo[19.4.0.0*3,8*]pentacosa-1(21),3,5,7,22,24-hexaene-11,14,17-trione], the MIC was 32 µg/mL (≈ 45.4 µM).

With `CN1C(=O)[C@H](CCCCN)NC(=O)[C@H](CCCN)NCc2ccccc2Sc2c(Cl)ccc(C(F)(F)F)c2CNC(=O)[C@@H]1Cc1c[nH]c2ccccc12` [Example 24, (12S,15S,18S)-15-(4-Amino-butyl)-18-(3-amino-propyl)-4-chloro-12-(1H-indol-3-ylmethyl)-13-methyl-7-trifluoromethyl-2-thia-10,13,16,19-tetraaza-tricyclo[19.4.0.0*3,8*]pentacosa-1(25),3,5,7,21,23-hexaene-11,14,17-trione], the MIC came to 1 µg/mL (≈ 1.29 µM).

Regarding `CN1C(=O)[C@H](CCCCN)NC(=O)[C@H](CCCN)NCc2cccnc2Sc2c(Cl)cc(-c3ccc(N)nc3)cc2CNC(=O)[C@@H]1Cc1c[nH]c2ccccc12` [Example 109, (11S,14S,17S)-14-(4-Amino-butyl)-11-(3-amino-propyl)-23-(6-amino-pyridin-3-yl)-25-chloro-17-(1H-indol-3-ylmethyl)-16-methyl-2-thia-4,10,13,16,19-pentaaza-tricyclo[19.4.0.0*3,8*]pentacosa-1(25),3(8),4,6,21,23-hexaene-12,15,18-trione], the MIC turned out to be 2 µg/mL (≈ 2.51 µM).

For `CN1C(=O)[C@H](CCCCN)NC(=O)[C@H](CCCN)NCc2ccccc2Sc2c(Cl)cc(-c3cn(C)cn3)cc2CNC(=O)[C@@H]1Cc1c[nH]c2ccccc12` [Example 154, (12S,15S,18S)-15-(4-Amino-butyl)-18-(3-amino-propyl)-4-chloro-12-(1H-indol-3-ylmethyl)-13-methyl-6-(1-methyl-1H-imidazol-4-yl)-2-thia-10,13,16,19-tetraaza-tricyclo[19.4.0.0*3,8*]pentacosa-1(25),3,5,7,21,23-hexaene-11,14,17-trione], the minimum inhibitory concentration (MIC) came to 2 µg/mL (≈ 2.55 µM).

Take `CN1C(=O)[C@H](CCCCN)NC(=O)[C@H](CCCN)NCc2cccnc2Sc2c(Cl)cc(-c3ccnnc3)cc2CNC(=O)[C@@H]1Cc1c[nH]c2ccccc12` [Example 148, (11S,14S,17S)-14-(4-Amino-butyl)-11-(3-amino-propyl)-25-chloro-17-(1H-indol-3-ylmethyl)-16-methyl-23-pyridazin-4-yl-2-thia-4,10,13,16,19-pentaaza-tricyclo[19.4.0.0*3,8*]pentacosa-1(25),3(8),4,6,21,23-hexaene-12,15,18-trione]: the MIC worked out at 8 µg/mL (≈ 10.2 µM).

Regarding `COc1cc(-c2cc(Cl)c3c(c2)CNC(=O)[C@H](Cc2c[nH]c4ccccc24)N(C)C(=O)[C@H](CCCCN)NC(=O)[C@H](CCC(N)=O)NCc2cccnc2S3)ccn1` [Example 134, 3-[(11S,14S,17S)-14-(4-Amino-butyl)-25-chloro-17-(1H-indol-3-ylmethyl)-23-(2-methoxy-pyridin-4-yl)-16-methyl-12,15,18-trioxo-2-thia-4,10,13,16,19-pentaaza-tricyclo[19.4.0.0*3,8*]pentacosa-1 (25),3(8),4,6,21,23 exaen-11-yl]-propionamde], the MIC was 2 µg/mL (≈ 2.42 µM).

Regarding `CN1C(=O)[C@H](CCCCN)NC(=O)[C@H](CCCN)NCc2nccnc2Sc2c(Cl)ccc(C(F)(F)F)c2CNC(=O)[C@@H]1Cc1c[nH]c2ccccc12` [Example 98, (11S,14S,17S)-14-(4-Amino-butyl)-11-(3-amino-propyl)-25-chloro-17-(1H-indol-3-ylmethyl)-16-methyl-22-trifluoromethyl-2-thia-4,7,10,13,16,19-hexaaza-tricyclo[19.4.0.0*3,8*]pentacosa-1(21),3,5,7,22,24-hexaene-12,15,18-trione], the minimal inhibitory concentration (MIC) was 0.12 µg/mL (≈ 0.155 µM).

With `CN1C(=O)[C@H](CCCCN)NC(=O)[C@H](CCC(N)=O)NCc2cccnc2Sc2c(Cl)cc(N3CCOCC3)cc2CNC(=O)[C@@H]1Cc1c[nH]c2ccccc12` [Example 137, 3-[(11S,14S,17S)-14-(4-Amino-butyl)-25-chloro-17-(1H-indol-3-ylmethyl)-16-methyl-23-morpholin-4-yl-12,15,18-trioxo-2-thia-4,10,13,16,19-pentaaza-tricyclo[19.4.0.0*3,8*]pentacosa-1(25),3(8),4,6,21,23-hexaen-11-yl]-propionamide], the minimum inhibitory concentration (MIC) amounted to 32 µg/mL (≈ 39.8 µM).

Take `CN1C(=O)[C@H](CCCCN)NC(=O)[C@H](CCCN)NCc2ccccc2Sc2c(Cl)cc(-c3ccn(C)n3)cc2CNC(=O)[C@@H]1Cc1c[nH]c2ccccc12` [Example 144, (12S,15S,18S)-15-(4-Amino-butyl)-18-(3-amino-propyl)-4-chloro-12-(1H-indol-3-ylmethyl)-13-methyl-6-(1-methyl-1H-pyrazol-3-yl)-2-thia-10,13,16,19-tetraaza-tricyclo[19.4.0.0*3,8*]pentacosa-1(25),3,5,7,21,23-hexaene-11,14,17-trione]: the minimum inhibitory concentration (MIC) came out at 1 µg/mL (≈ 1.27 µM).

With `CN1C(=O)[C@H](CCCCN)NC(=O)[C@H](CCCN)NCc2ccccc2Sc2c(Cl)cccc2CNC(=O)[C@@H]1Cc1c[nH]c2ccccc12` [Example 11, (12S,15S,18S)-15-(4-Amino-butyl)-18-(3-amino-propyl)-4-chloro-12-(1H-indol-3-ylmethyl)-13-methyl-2-thia-10,13,16,19-tetraaza-tricyclo[19.4.0.0*3,8*]pentacosa-1(21),3,5,7,22,24-hexaene-11,14,17-trione], the MIC was determined as 0.5 µg/mL (≈ 0.71 µM).

In the case of `CN(C)c1ccc(-c2cc(Cl)c3c(c2)CNC(=O)[C@H](Cc2c[nH]c4ccccc24)N(C)C(=O)[C@H](CCCCN)NC(=O)[C@H](CCCN)NCc2cccnc2S3)cn1` [Example 166, (11S,14S,17S)-14-(4-Amino-butyl)-11-(3-amino-propyl)-25-chloro-23-(6-dimethylamino-pyridin-3-yl)-17-(1H-indol-3-ylmethyl)-16-methyl-2-thia-4,10,13,16,19-pentaaza-tricyclo[19.4.0.0*3,8*]pentacosa-1(25),3(8),4,6,21,23-hexaene-12,15,18-trione], the minimum inhibitory concentration (MIC) worked out at 0.5 µg/mL (≈ 0.606 µM).

With `COc1cc(-c2cc(Cl)c3c(c2)CNC(=O)[C@H](Cc2c(C)[nH]c4ccccc24)N(C)C(=O)[C@H](CCCCN)NC(=O)[C@H](CCCN)NCc2cccnc2S3)ccn1` [Example 171, (11S,14S,17S)-14-(4-Amino-butyl)-11-(3-amino-propyl)-25-chloro-23-(2-methoxy-pyridin-4-yl)-16-methyl-17-(2-methyl-1H-indol-3-ylmethyl)-2-thia-4,10,13,16,19-pentaaza-tricyclo[19.4.0.0*3,8*]pentacosa-1(25),3(8),4,6,21,23-hexaene-12,15,18-trione], the MIC was 0.5 µg/mL (≈ 0.605 µM).

Consider `CN1C(=O)[C@H](CCCCN)NC(=O)[C@H](CCCN)NCc2cccnc2Sc2c(Cl)cc(-c3ccc(S(C)(=O)=O)cc3)cc2CNC(=O)[C@@H]1Cc1c[nH]c2ccccc12` [Example 172, (11S,14S,17S)-14-(4-Amino-butyl)-11-(3-amino-propyl)-25-chloro-17-(1H-indol-3-ylmethyl)-23-(4-methanesulfonyl-phenyl)-16-methyl-2-thia-4,10,13,16,19-pentaaza-tricyclo[19.4.0.0*3,8*]pentacosa-1(25),3(8),4,6,21,23-hexaene-12,15,18-trione], for which the MIC is 0.5 µg/mL (≈ 0.582 µM).

`Cc1cccc2c1Sc1ncccc1CN[C@@H](CCCN)C(=O)N[C@@H](CCCCN)C(=O)N(C)[C@@H](Cc1c[nH]c3ccccc13)C(=O)NC2` [Example 51, (11S,14S,17S)-14-(4-Amino-butyl)-11-(3-amino-propyl)-17-(1H-indol-3-ylmethyl)-16,25-dimethyl-2-thia-4,10,13,16,19-pentaaza-tricyclo[19.4.0.0*3,8*]pentacosa-1(25),3,5,7,21,23-hexaene-12,15,18-trione]: the minimum inhibitory concentration (MIC) amounted to 4 µg/mL (≈ 5.84 µM).
